≈ marks a conversion by molar mass, not a printed value.
Assays:
[1] = test system: Trichophyton rubrum KD-1130; experiment: Antifungal activity evaluation test: minimum inhibitory concentration (MIC), broth dilution by reference to CLSI M38-A2; type: cell-based; conditions: KD1130, read-out: MIC (T. rubrum)
Summary of the method: (§1)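 Broth microdilution after CLSI M38-A2: 2-fold DMSO dilution series in MOPS-buffered RPMI 1640 pH 7.0, inoculum 2×10^3 cells/mL final. Incubated 35° C for 4 days; MIC (μg/mL) is lowest concentration giving visually ≥80% growth inhibition versus growth control.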

[2] = test system: Trichophyton mentagrophytes SM-110; experiment: as above; type: cell-based; conditions: SM110, read-out: MIC (T. menta.)
Summary of the method: as §1

Row | SMILES | MIC [1] | MIC [2]
1 | COc1ccccc1-c1cccnc1Oc1ccc(C)nc1 [I-68] | 1.56 to 6.25 µg/mL (≈ 5.34 to 21.4 µM) | 1.56 to 6.25 µg/mL (≈ 5.34 to 21.4 µM)
2 | COc1ccccc1-c1cccnc1Oc1ccc(OC(F)F)cc1 [I-445] | ≤ 0.1 µg/mL | ≤ 0.1 µg/mL
3 | CCc1ccc(Oc2ncccc2-c2cnccc2CC)cc1 [I-291, 4′-ethyl-2-(4-ethylphenoxy)-3,3′-bipyridine] | ≤ 0.1 µg/mL | ≤ 0.1 µg/mL
4 | CN(C)c1ccccc1-c1cccnc1Oc1ccc(C(F)(F)F)nc1 [I-62, N,N-dimethyl-2-(2-{[6-(trifluoromethyl)pyridin-3-yl]oxy}pyridin-3-yl)-aniline] | 0.2 to 0.78 µg/mL (≈ 0.557 to 2.17 µM) | 1.56 to 6.25 µg/mL (≈ 4.34 to 17.4 µM)
5 | Cc1nn2c(c1-c1cccnc1Oc1ccc(C(F)(F)F)cc1)OCC2 [I-232, 6-methyl-7-{2-[4-(trifluoromethyl)phenoxy]pyridin-3-yl}-2,3-dihydropyrazolo[1,5-b]oxazole] | 0.2 to 0.78 µg/mL (≈ 0.554 to 2.16 µM) | 0.2 to 0.78 µg/mL (≈ 0.554 to 2.16 µM)
6 | COc1ccc(-c2cccnc2Oc2ccc(C(C)(F)F)nc2)c(OC)n1 [I-94, 2′-{[6-(1,1-difluoroethyl)pyridin-3-yl]oxy}-2,6-dimethoxy-3,3′-bipyridine] | ≤ 0.1 µg/mL | ≤ 0.1 µg/mL
7 | CCOCCc1ccc(Oc2ncccc2-c2cccc3ccnn23)cc1 [I-412, 7-{2-[4-(2-ethoxyethyl)phenoxy]pyridin-3-yl}pyrazolo[1,5-a]pyridine] | ≤ 0.1 µg/mL | ≤ 0.1 µg/mL
8 | C=C(C)c1ncc(Oc2ncccc2-c2ccc(F)cc2OC)cn1 [I-378, 5-{[3-(4-fluoro-2-methoxyphenyl)pyridin-2-yl]oxy}-2-(prop-1-en-2-yl)pyrimidine] | ≤ 0.1 µg/mL | ≤ 0.1 µg/mL
9 | FC(F)(F)c1ccc(Oc2ncccc2-c2cncc3nccnc23)cc1 [I-227, 8-{2-[4-(trifluoromethyl)phenoxy]pyridin-3-yl}pyrido[3,4-b]pyrazine] | ≤ 0.1 µg/mL | ≤ 0.1 µg/mL
10 | Clc1ccc(Oc2nccnc2-c2cccc3ccccc23)cc1 [I-314, 2-(4-chlorophenoxy)-3-(naphthalen-1-yl)pyrazine] | ≤ 0.1 µg/mL | 0.2 to 0.78 µg/mL (≈ 0.601 to 2.34 µM)
11 | COc1ccncc1-c1cccnc1Oc1ccc(C(F)F)cc1 [I-294, 2-[4-(difluoromethyl)phenoxy]-4′-methoxy-3,3′-bipyridine] | 0.2 to 0.78 µg/mL (≈ 0.609 to 2.38 µM) | 0.2 to 0.78 µg/mL (≈ 0.609 to 2.38 µM)
12 | CCN(C)c1ncc(Oc2ncccc2-c2cccc3c2OCC3)cn1 [I-340, 5-{[3-(2,3-dihydrobenzofuran-7-yl)pyridin-2-yl]oxy}-N-ethyl-N-methylpyrimidin-2-amine] | ≤ 0.1 µg/mL | ≤ 0.1 µg/mL
13 | COc1ccc(OC)c(-c2cccnc2Oc2ccc(C(C)(F)F)nc2)c1 [I-84, 2-{[6-(1,1-difluoroethyl)pyridin-3-yl]oxy}-3-(2,5-dimethoxyphenyl)pyridine] | ≤ 0.1 µg/mL | ≤ 0.1 µg/mL
14 | CCOCC(F)(F)c1ccc(Oc2ncccc2-c2ccc(F)cc2OC)cn1 [I-155, 2-{[6-(2-ethoxy-1,1-difluoroethyl)pyridin-3-yl]oxy}-3-(4-fluoro-2-methoxyphenyl)pyridine] | ≤ 0.1 µg/mL | ≤ 0.1 µg/mL
15 | COCC(F)(F)c1ccc(Oc2ncccc2-c2cc(Cl)cnc2OC)cn1 [I-451] | ≤ 0.1 µg/mL | ≤ 0.1 µg/mL
16 | COc1ccccc1-c1cccnc1Oc1ccc(C(F)(F)COS(=O)(=O)C(F)(F)F)nc1 [I-80, 2,2-difluoro-2-(5-{[3-(2-methoxyphenyl)pyridin-2-yl]oxy}pyridin-2-yl)ethyl trifluoromethanesulfonate] | 0.2 to 0.78 µg/mL | 0.2 to 0.78 µg/mL
17 | COc1ccccc1-c1cccnc1Cc1ccc(C(F)(F)F)cc1 [I-439, 3-(2-methoxyphenyl)-2-[4-(trifluoromethyl)benzyl]pyridine] | 0.2 to 0.78 µg/mL (≈ 0.582 to 2.27 µM) | 0.2 to 0.78 µg/mL (≈ 0.582 to 2.27 µM)
18 | O=C1CCc2cccc(-c3cccnc3Oc3ccc(C(F)(F)F)nc3)c21 [I-40, 7-(2-{[6-(trifluoromethyl)pyridin-3-yl]oxy}pyridin-3-yl)-2,3-dihydro-1H-inden-1-one] | 0.2 to 0.78 µg/mL (≈ 0.54 to 2.11 µM) | 0.2 to 0.78 µg/mL (≈ 0.54 to 2.11 µM)
19 | COc1ncccc1-c1cccnc1Oc1ccc2c(c1)CCCC2=O [I-272, 6-{[2′-methoxy-(3,3-bipyridin)-2-yl]oxy}-3,4-dihydronaphthalen-1(2H)-one] | ≤ 0.1 µg/mL | ≤ 0.1 µg/mL
20 | COc1ccncc1-c1cccnc1Oc1ccc(Cl)cc1 [I-235, 2-(4-chlorophenoxy)-4′-methoxy-3,3′-bipyridine] | 0.2 to 0.78 µg/mL (≈ 0.639 to 2.49 µM) | 0.2 to 0.78 µg/mL (≈ 0.639 to 2.49 µM)
21 | COc1ccccc1-c1cccnc1Oc1ccc(OCc2ccccc2)nc1 [I-171, 2-{[6-(benzyloxy)pyridin-3-yl]oxy}-3-(2-methoxyphenyl)pyridine] | ≤ 0.1 µg/mL | ≤ 0.1 µg/mL
22 | COc1ccccc1-c1cccnc1Oc1ccc(C(F)(F)CN(C)C(C)=O)nc1 [I-151, N-[2,2-difluoro-2-(5-{[3-(2-methoxyphenyl)pyridin-2-yl]oxy}-2-yl)-ethyl]-N-methylacetamide] | 0.2 to 0.78 µg/mL (≈ 0.484 to 1.89 µM) | 0.2 to 0.78 µg/mL (≈ 0.484 to 1.89 µM)
23 | COc1ccccc1-c1cccnc1Oc1cnc(C(F)(F)C(F)(F)F)nc1 [I-181, 5-{[3-(2-methoxyphenyl)pyridin-2-yl]oxy}-2-(pentafluoroethyl)pyrimidine] | ≤ 0.1 µg/mL | 0.2 to 0.78 µg/mL (≈ 0.503 to 1.96 µM)
24 | COc1ccc(F)cc1-c1cccnc1Oc1cnc(C(F)F)c(C)c1 [I-122, 2-(difluoromethyl)-5-{[3-(5-fluoro-2-methoxyphenyl)pyridin-2-yl]oxy}-3-methylpyridine] | ≤ 0.1 µg/mL | ≤ 0.1 µg/mL
25 | c1cnc(Oc2cnc3c(c2)CCC3)c(-c2cccc3c2OCC3)c1 [I-138, 3-{[3-(2,3-dihydrobenzofuran-7-yl)pyridin-2-yl]oxy}-6,7-dihydro-5H-cyclopenta[b]pyridine] | ≤ 0.1 µg/mL | ≤ 0.1 µg/mL

Row | SMILES | MIC [1] | MIC [2]
26 | COc1ccncc1-c1cccnc1Oc1ccc(CC(F)(F)F)cc1 [I-249, 4′-methoxy-2-[4-(2,2,2-trifluoroethyl)phenoxy]-3,3′-bipyridine] | 0.2 to 0.78 µg/mL (≈ 0.555 to 2.16 µM) | 0.2 to 0.78 µg/mL (≈ 0.555 to 2.16 µM)
27 | COc1cc(-c2cccnc2Oc2ccc(C(F)F)nc2)ccc1F [I-75, 2-{[6-(difluoromethyl)pyridin-3-yl]oxy}-3-(4-fluoro-3-methoxyphenyl)pyridine] | ≤ 0.1 µg/mL | ≤ 0.1 µg/mL
28 | COc1ncccc1-c1cccnc1Oc1ccc(C)cc1 [I-459] | ≤ 0.1 µg/mL | ≤ 0.1 µg/mL
29 | CCc1ccccc1-c1cccnc1Oc1ccc(C(F)(F)F)nc1 [I-16, 3-(2-ethylphenyl)-2-{[6-(trifluoromethyl)pyridin-3-yl]oxy}pyridine] | ≤ 0.1 µg/mL | ≤ 0.1 µg/mL
30 | COc1cc(F)ccc1-c1cccnc1Oc1ccc(C2CC2)nc1 [I-129, 2-[(6-cyclopropylpyridin-3-yl)oxy]-3-(4-fluoro-2-methoxyphenyl)pyridine] | ≤ 0.1 µg/mL | ≤ 0.1 µg/mL
31 | CCN(C)c1ccc(Oc2ncccc2-c2ccc(F)cc2OC)cn1 [I-367, N-ethyl-5-{[3-(4-fluoro-2-methoxyphenyl)pyridin-2-yl]oxy}-N-methylpyridin-2-amine] | ≤ 0.1 µg/mL | ≤ 0.1 µg/mL
32 | COc1ccccc1-c1cccnc1Oc1ccc(C(F)F)c(C)c1 [I-455] | ≤ 0.1 µg/mL | ≤ 0.1 µg/mL
33 | COc1c(Cl)cncc1-c1cccnc1Oc1ccc(C(C)(F)F)cc1 [I-300] | ≤ 0.1 µg/mL | ≤ 0.1 µg/mL
34 | Cc1ccncc1-c1cccnc1Oc1ccc(-c2ccncc2)cc1 [I-430] | ≤ 0.1 µg/mL | ≤ 0.1 µg/mL
35 | Cc1nn(C)c(C)c1-c1cccnc1Oc1ccc(C(F)(F)F)cc1 [I-341, 2-[4-(trifluoromethyl)phenoxy]-3-(1,3,5-trimethyl-1H-pyrazol-4-yl)pyridine] | ≤ 0.1 µg/mL | 0.2 to 0.78 µg/mL (≈ 0.576 to 2.25 µM)
36 | COc1ccccc1-c1cccnc1Oc1cnc(C(F)F)c(C)c1 [I-120] | ≤ 0.1 µg/mL | ≤ 0.1 µg/mL
37 | CCc1ccc(Oc2ncccc2-c2cncc(Cl)c2OC)cc1 [I-284, 5′-chloro-2-(4-ethylphenoxy)-4′-methoxy-3,3′-bipyridine] | ≤ 0.1 µg/mL | ≤ 0.1 µg/mL
38 | CC(F)(F)c1ccc(Oc2ncncc2-c2cccc3c2OCC3)cn1 [I-335, 4-{[6-(1,1-difluoroethyl)pyridin-3-yl]oxy}-5-(2,3-dihydrobenzofuran-7-yl)pyrimidine] | ≤ 0.1 µg/mL | ≤ 0.1 µg/mL
39 | COc1ccncc1-c1cccnc1Oc1ccc(SC)cc1 [I-241, 4′-methoxy-2-[4-(methylthio)phenoxy]-3,3′-bipyridine] | ≤ 0.1 µg/mL | ≤ 0.1 µg/mL
40 | COc1ccncc1-c1cccnc1Oc1ccc(C(F)F)c(C)c1 [I-295, 2-[4-(difluoromethyl)-3-methylphenoxy]-4′-methoxy-3,3′-bipyridine] | ≤ 0.1 µg/mL | ≤ 0.1 µg/mL
41 | CC(F)(F)c1ccc(Oc2ncccc2-c2cncc3ccccc23)cn1 [I-109, 4-(2-{[6-(1,1-difluoroethyl)pyridin-3-yl]oxy}pyridin-3-yl)isoquinoline] | ≤ 0.1 µg/mL | ≤ 0.1 µg/mL
42 | COc1ncccc1-c1cccnc1Oc1ccc(C(F)(F)CO)cc1 [I-434] | 1.56 to 6.25 µg/mL (≈ 4.35 to 17.4 µM) | 0.2 to 0.78 µg/mL (≈ 0.558 to 2.18 µM)
43 | COc1ccccc1-c1cccnc1Oc1ccc(C(F)(F)CN(C)OC)nc1 [I-150, N-[2,2-difluoro-2-(5-{[3-(2-methoxyphenyl)pyridin-2-yl]oxy}pyridin-2-yl)ethyl]-N,O-dimethylhydroxylamine] | ≤ 0.1 µg/mL | ≤ 0.1 µg/mL
44 | COc1ccccc1-c1cccnc1Nc1ccc(C(F)(F)F)nc1 [I-313] | ≤ 0.1 µg/mL | ≤ 0.1 µg/mL
45 | COc1ncccc1-c1cccnc1Oc1ccc(C(F)F)cc1 [I-443] | ≤ 0.1 µg/mL | ≤ 0.1 µg/mL
46 | COc1ccccc1-c1cncnc1Oc1ccc(C(C)(F)F)nc1 [I-312, 4-{[6-(1,1-difluoroethyl)-pyridin-3-yl]oxy}-5-(2-methoxyphenyl)pyrimidine] | ≤ 0.1 µg/mL | ≤ 0.1 µg/mL
47 | COc1ccncc1-c1cccnc1Oc1ccc(C(C)C)cc1 [I-255, 2-(4-isopropylphenoxy)-4′-methoxy-3,3′-bipyridine] | ≤ 0.1 µg/mL | ≤ 0.1 µg/mL
48 | COc1ncccc1-c1cccnc1Oc1ccc(OC(F)F)cc1 [I-446] | ≤ 0.1 µg/mL | ≤ 0.1 µg/mL
49 | COc1ncc(F)cc1-c1cccnc1Oc1cnc(C(F)(F)F)c(C)c1 [I-119, 5-fluoro-2-methoxy-2′-{[5-methyl-6-(trifluoromethyl)pyridin-3-yl]oxy}-3,3′-bipyridine] | ≤ 0.1 µg/mL | ≤ 0.1 µg/mL
